From ChEMBL document CHEMBL1201862, “PubChem BioAssay data set” (2004)
Active and inactive are the calls of the source.

Key:
[1] = target: T1, Heat shock factor protein 1 (Mus musculus, UniProt P38532); test: HSF1 potentiators in luciferase reporter cells, confirmation, cell-based, NIH3T3, luminescence, dose retest (AID 435004); type: functional;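 also: stress induced by proteasome inhibitor MG132 added 30 min after compound; luciferase reporter driven by HSF1 response element in NIH3T3 cells; actives raise luminescence as potentiators of the MG132 stress response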
T1 sequence (P38532 whole entry): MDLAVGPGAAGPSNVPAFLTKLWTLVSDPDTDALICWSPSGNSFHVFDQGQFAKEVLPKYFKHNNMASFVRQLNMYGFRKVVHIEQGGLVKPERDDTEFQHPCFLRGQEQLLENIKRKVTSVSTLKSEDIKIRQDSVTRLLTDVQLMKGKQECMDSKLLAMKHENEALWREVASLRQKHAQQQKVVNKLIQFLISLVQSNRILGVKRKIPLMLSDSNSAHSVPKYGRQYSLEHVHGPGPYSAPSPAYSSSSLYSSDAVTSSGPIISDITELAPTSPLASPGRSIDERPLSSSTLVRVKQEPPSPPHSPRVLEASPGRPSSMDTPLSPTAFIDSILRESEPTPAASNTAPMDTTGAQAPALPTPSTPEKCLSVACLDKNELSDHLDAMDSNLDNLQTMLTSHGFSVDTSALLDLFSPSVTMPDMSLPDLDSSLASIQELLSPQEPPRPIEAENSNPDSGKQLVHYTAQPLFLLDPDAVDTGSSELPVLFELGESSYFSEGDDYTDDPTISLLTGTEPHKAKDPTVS

[2] = target: T2, Corticotropin-releasing factor receptor 2/Corticotropin-releasing factor-binding protein (Homo sapiens, UniProt P24387+Q13324); test: Dose Response confirmation of uHTS hits for small molecule antagonists of the CRF-binding protein and CRF-R2 receptor complex.; type: functional; settings: read-out: IC50_Mean
T2 sequence (Q13324 whole entry): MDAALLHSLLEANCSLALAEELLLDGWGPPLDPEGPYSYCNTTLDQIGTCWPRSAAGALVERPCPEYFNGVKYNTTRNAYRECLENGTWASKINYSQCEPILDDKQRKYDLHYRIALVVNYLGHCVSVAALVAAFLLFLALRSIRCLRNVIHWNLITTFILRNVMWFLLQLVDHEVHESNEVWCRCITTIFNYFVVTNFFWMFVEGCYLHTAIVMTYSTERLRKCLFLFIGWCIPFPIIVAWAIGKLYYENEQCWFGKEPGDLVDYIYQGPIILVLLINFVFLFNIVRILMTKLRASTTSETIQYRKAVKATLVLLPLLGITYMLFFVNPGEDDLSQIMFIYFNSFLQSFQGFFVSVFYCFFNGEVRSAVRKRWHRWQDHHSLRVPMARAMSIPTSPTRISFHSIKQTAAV
T2 sequence (P24387 whole entry): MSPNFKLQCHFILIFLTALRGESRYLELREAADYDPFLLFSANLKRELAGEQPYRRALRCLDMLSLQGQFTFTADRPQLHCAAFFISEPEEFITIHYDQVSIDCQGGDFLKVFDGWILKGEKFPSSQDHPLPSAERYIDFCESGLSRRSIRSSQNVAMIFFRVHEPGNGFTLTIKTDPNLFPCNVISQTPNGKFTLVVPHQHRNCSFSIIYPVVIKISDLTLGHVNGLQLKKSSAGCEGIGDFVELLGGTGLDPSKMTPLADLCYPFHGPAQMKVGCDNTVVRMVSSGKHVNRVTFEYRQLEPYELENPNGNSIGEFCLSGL

[3] = target: T2, Corticotropin-releasing factor receptor 2/Corticotropin-releasing factor-binding protein; test: activators of CRF receptor 2 with binding protein – uHTS hits, confirmation (AID 602473); type: functional; settings: read-out: EC50_Mean
[4] = CRF-BP/CRF-R2 complex antagonists, dose response, cell-based, uHTS hits, 384-well (AID 651639); type: functional, Homo sapiens; settings: read-out: IC50_Mean
[5] = target: Induced myeloid leukemia cell differentiation protein Mcl-1 (Homo sapiens, UniProt Q07820); type: functional
Induced myeloid leukemia cell differentiation protein Mcl-1, sequence (Q07820 whole entry): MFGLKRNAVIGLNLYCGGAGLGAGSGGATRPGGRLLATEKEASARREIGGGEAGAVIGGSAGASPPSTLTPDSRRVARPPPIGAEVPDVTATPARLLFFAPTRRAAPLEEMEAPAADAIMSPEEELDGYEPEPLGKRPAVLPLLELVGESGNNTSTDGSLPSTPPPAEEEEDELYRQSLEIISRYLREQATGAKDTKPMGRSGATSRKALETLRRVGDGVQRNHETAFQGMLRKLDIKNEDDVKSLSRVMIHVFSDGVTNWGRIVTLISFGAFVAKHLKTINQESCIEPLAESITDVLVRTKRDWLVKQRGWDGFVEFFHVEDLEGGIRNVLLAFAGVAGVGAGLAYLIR

[6] = target: DNA dC->dU-editing enzyme APOBEC-3G (Homo sapiens, UniProt Q9HC16); test: Dose Response confirmation of small molecule APOBEC3G DNA Deaminase Inhibitors via a fluorescence-based single-stranded DNA deaminase assay. [Related pubchem assays (depositor defined):AID493012, AID493028]; type: functional
DNA dC->dU-editing enzyme APOBEC-3G, sequence (Q9HC16 whole entry): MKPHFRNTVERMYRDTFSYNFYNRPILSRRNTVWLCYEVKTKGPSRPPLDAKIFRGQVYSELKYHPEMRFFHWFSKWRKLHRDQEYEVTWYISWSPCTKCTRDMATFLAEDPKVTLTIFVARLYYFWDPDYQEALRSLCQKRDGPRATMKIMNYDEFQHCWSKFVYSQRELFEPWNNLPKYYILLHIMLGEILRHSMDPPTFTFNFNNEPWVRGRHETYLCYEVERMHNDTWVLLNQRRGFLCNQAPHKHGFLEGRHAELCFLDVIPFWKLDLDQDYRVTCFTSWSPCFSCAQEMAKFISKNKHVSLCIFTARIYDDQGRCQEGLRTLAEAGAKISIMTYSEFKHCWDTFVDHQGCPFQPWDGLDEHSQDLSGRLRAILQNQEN

[7] = miR-122 activators in hepatoma reporter cells, dose response, cell-based, Huh7 psiCHECK-miR122, Renilla luciferase, cherry-picked (AID 651956); type: functional;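 also: huh7 hepatoma cells stably carrying a psiCHECK-2 miR-122 sensor plasmid; renilla luciferase signal reporting endogenous miR-122 activity after 48 h compound exposure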
[8] = intracellular Trypanosoma cruzi inhibitors in host cells – cell-based, plate reader, cherry-pick samples, set 3, dose response (AID 651818); type: functional;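 also: compounds incubated with infected cells for about four days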
[9] = P. falciparum 3D7-ScDHODH growth inhibitors, dose response, SYBR Green, dry powder samples (AID 1159570); type: functional, cell-based;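 also: parasite growth measured after 72 hours of compound exposure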
[10] = P. falciparum Dd2 growth inhibitors, dose response, SYBR Green, cherry-picked samples (AID 1159567); type: functional, cell-based
[11] = P. falciparum Dd2 growth inhibitors, dose response, SYBR Green, dry powder samples (AID 1159566); type: functional, cell-based;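 also: potency for growth inhibition with lower SYBR green DNA signal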
[12] = P. falciparum ATP4 D1247Y mutant growth inhibitors, dose response, NITD609-resistant line, SYBR Green, dry powder (AID 1159571); type: functional, cell-based;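 also: parasites synchronized at ring stage by sorbitol before testing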
[13] = HepG2 cell cytotoxicity, dose response, cytotoxicity control, plate reader, dry powder samples (AID 1159569); type: functional, cell-based;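 also: inhibitor potency with signal falling toward the positive control level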

COc1ccc(C(=O)COC(=O)c2cccnc2SC)cc1
EC50 [1]: > 260 µM (inactive)
IC50 [2]: 1.85 µM (active)
EC50 [3]: > 53 µM (inactive)
IC50 [4]: 3.77 µM (active)

O=C(CN1C(=O)/C(=C2\SC(=S)N(C3CCS(=O)(=O)C3)C2=O)c2ccccc21)Nc1ccccc1 (stereo not given)
IC50 [5]: 5.8 µM (active)

COc1ccc(Cc2nnc(S)n2C)cc1Br
IC50 [6]: 18.9 µM (active)

CCOC(=O)c1c(NC(=O)c2cc(-c3ccc(O)cc3)on2)sc(C(C)=O)c1C
IC50 [5]: 3.69 µM (active)

N#Cc1ccc(CN(Nc2ccccc2)c2ccccc2)cc1
IC50 [2]: 14.3 µM (active)
EC50 [3]: > 53 µM (inactive)
IC50 [4]: 10 µM (active)

C[C@H](CO)N1C[C@H](C)[C@@H](CN(C)C(=O)C2CCOCC2)Oc2cc(C#Cc3ccncc3)ccc2S1(=O)=O
AC50 [7]: 3.77 µM (active)

COc1ccc(NC(=O)Nc2cccc3c2O[C@@H](CN(C)Cc2ccc(C(=O)O)cc2)[C@@H](C)CN([C@@H](C)CO)C3=O)cc1
AC50 [8]: 20 µM (inactive)

CCCNC(=O)C[C@@H]1CC[C@@H]2[C@H](COc3ccc(NS(=O)(=O)c4ccccc4C)cc3C(=O)N2C)O1
AC50 [7]: 56 µM (active)

C[C@@H]1CN([C@@H](C)CO)S(=O)(=O)c2ccc(C#CC3CC3)cc2O[C@@H]1CN(C)C(=O)c1cccc(F)c1
AC50 [7]: 8.3 µM (active)

C[C@@H]1CN([C@H](C)CO)C(=O)Cc2cc(NC(=O)Nc3ccc(C(F)(F)F)cc3)ccc2O[C@@H]1CN(C)S(=O)(=O)c1ccccc1
AC50 [8]: 4.23 µM (active)

C[C@@H]1CCCCO[C@@H](CN(C)Cc2ccc(Cl)c(Cl)c2)[C@@H](C)CN([C@H](C)CO)C(=O)c2cc(NS(=O)(=O)c3ccccc3)ccc2O1
AC50 [8]: 5.37 µM (active)

COc1ccccc1S(=O)(=O)N(C)C[C@@H]1OCc2ccccc2-c2c(n(C)c3ccccc23)C(=O)N([C@@H](C)CO)C[C@@H]1C
AC50 [9]: 0.507 µM (active)
AC50 [10]: 2.19 µM (active)
AC50 [11]: 0.445 µM (active)
AC50 [12]: 0.44 µM (active)

N#Cc1cccc(-c2ccc3c(c2)[C@H]2[C@H](CCN2Cc2ccncc2)[C@@H](CO)N3)c1
AC50 [9]: 1.57 µM (active)
AC50 [13]: > 100 µM (inactive)
AC50 [10]: 1.99 µM (active)
AC50 [11]: 1.4 µM (active)
AC50 [12]: 3.28 µM (active)

C[C@H](CO)N1C[C@H](C)[C@H](CN(C)CC2CC2)Oc2ccc(NC(=O)Nc3cccc4ccccc34)cc2CC1=O
AC50 [9]: 2.51 µM (active)
AC50 [13]: 48.5 µM (active)
AC50 [10]: 2.51 µM (active)
AC50 [11]: 1.25 µM (active)
AC50 [12]: 2.47 µM (active)
